Results reported in article PMC3573112, “Compatibility in the Ustilago maydis–Maize Interaction Requires Inhibition of Host Cysteine Proteases by the Fungal Effector Pit2” (PLoS Pathogens, 2013).
Where a SMILES comes first, the peptide text is derived from it. The star is where a group is joined. AMC = Cc1cc(=O)oc2cc(N*)ccc12; Cbz = O=C(OCc1ccccc1)*

How the values were obtained:
CP1A = target: T1, CP1A (Zea mays, UniProt B6T669); assay: fluorimetric protease assay (AMC release), apoplastic fluid; type: biochemical; conditions: 2 µM substrate; pH 6.0, room temperature; DTT
T1 construct: transiently expressed in Nicotiana benthamiana (pGreenII 0029); apoplastic fluid, not purified
T1 sequence (B6T669 130-463): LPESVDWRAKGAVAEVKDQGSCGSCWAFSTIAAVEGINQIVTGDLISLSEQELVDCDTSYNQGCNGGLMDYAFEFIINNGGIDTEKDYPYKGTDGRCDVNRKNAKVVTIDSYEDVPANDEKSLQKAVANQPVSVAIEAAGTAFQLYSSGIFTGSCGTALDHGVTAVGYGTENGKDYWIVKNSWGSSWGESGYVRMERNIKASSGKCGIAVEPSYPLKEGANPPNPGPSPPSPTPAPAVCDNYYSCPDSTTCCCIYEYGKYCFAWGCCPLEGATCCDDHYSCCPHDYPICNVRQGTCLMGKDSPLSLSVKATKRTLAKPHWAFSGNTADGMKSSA

[1] = target: T2, CP2 (corn cysteine protease 2) (Zea mays, UniProt Q43705); assay: fluorimetric protease assay (AMC release, […] nm); type: biochemical; conditions: 1 µM substrate; pH 6.0
T2 construct: gene see1
T2 sequence (Q43705 143-360 limits assumed): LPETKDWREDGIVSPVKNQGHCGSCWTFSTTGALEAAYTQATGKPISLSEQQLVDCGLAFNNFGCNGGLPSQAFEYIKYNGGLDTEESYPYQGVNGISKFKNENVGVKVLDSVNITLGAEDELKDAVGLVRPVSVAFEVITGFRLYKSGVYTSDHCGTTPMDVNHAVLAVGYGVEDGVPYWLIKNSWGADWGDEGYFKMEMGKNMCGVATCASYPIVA

CP2 = target: T3, CP2 (Zea mays, UniProt Q43705); assay: fluorimetric protease assay (AMC release), apoplastic fluid; type: biochemical; conditions: 2 µM substrate; pH 6.0, room temperature; DTT
T3 construct: gene see1; transiently expressed in Nicotiana benthamiana (pGreenII 0029); apoplastic fluid, not purified
T3 sequence (Q43705 143-360): T2 sequence (Q43705 143-360 limits assumed)

CathepsinBIII (CatB) = target: T4, CathepsinBIII (CatB) (Zea mays, UniProt B6TLR9); assay: as above; type: biochemical; conditions: 2 µM substrate; pH 6.0, room temperature; DTT
T4 construct: transiently expressed in Nicotiana benthamiana (pGreenII 0029); apoplastic fluid, not purified
T4 sequence (B6TLR9 93-347): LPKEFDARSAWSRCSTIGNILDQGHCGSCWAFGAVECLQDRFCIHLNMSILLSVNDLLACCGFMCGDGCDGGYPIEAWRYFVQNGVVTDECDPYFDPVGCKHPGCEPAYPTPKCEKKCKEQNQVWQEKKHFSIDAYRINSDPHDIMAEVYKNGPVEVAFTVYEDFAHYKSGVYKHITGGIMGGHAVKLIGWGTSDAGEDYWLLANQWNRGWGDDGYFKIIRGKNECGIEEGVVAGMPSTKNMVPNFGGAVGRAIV

XCP2 = target: T5, XCP2 (Zea mays, UniProt B6TIC7); assay: as above; type: biochemical; conditions: 2 µM substrate; pH 6.0, room temperature; DTT
T5 construct: transiently expressed in Nicotiana benthamiana (pGreenII 0029); apoplastic fluid, not purified
T5 sequence (B6TIC7 158-377): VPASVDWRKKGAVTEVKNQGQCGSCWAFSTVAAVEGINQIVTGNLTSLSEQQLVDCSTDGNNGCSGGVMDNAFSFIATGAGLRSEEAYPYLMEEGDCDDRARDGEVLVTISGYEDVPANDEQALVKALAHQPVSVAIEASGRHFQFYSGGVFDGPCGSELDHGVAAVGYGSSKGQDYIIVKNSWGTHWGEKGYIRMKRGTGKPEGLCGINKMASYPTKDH

[2] = target: T2, CP2 (corn cysteine protease 2); assay: fluorimetric protease assay with Z-Phe-Arg-AMC; type: biochemical; conditions: 10 min preincubation; 1 µM Z-Phe-Arg-AMC; pH 6.0; covalent
[3] = target: CP2 (corn cysteine protease 2) without signal peptide and prodomain, Gal4 activation domain fusion (pGADT7-CP2) (maize) (UniProt Q10717)

Cc1cc(=O)oc2cc(NC(=O)[C@H](CCCNC(=N)N)NC(=O)[C@H](Cc3ccccc3)NC(=O)OCc3ccccc3)ccc12 [Z-Phe-Arg-7-amido-4-methylcoumarin] (Cbz-Phe-Arg-{AMC})
fluorimetric protease assay (AMC release), apoplastic fluid (CP1A): Protease activity was determined using substrate Z-Phe-Arg-AMC
fluorimetric protease assay (AMC release, 460 nm) [1]: Protease-activity was determined using the fluorescent substrate Z-Phe-Arg-AMC
fluorimetric protease assay (AMC release), apoplastic fluid (CP2): Protease activity was determined using substrate Z-Phe-Arg-AMC
fluorimetric protease assay (AMC release), apoplastic fluid (CathepsinBIII (CatB)): Protease activity was determined using substrate Z-Phe-Arg-AMC
fluorimetric protease assay (AMC release), apoplastic fluid (XCP2): Protease activity was determined using substrate Z-Phe-Arg-AMC

CC(C)C[C@H](NC(=O)[C@H]1O[C@@H]1C(=O)O)C(=O)NCCCCN=C(N)N [E-64]
inhibition at 2.5 μM [2]: inhibited by addition of the specific small molecule cysteine protease inhibitor E-64

GST-Pit2 (Pit2 without signal peptide with N-terminal GST-tag, pRSET-GST-PP-Pit2) (natural protein)
inhibition of the activity on Z-Phe-Arg-AMC of recombinant His-tagged CP2 (E. coli, refolded, activated by pH shift and pepsin) by 10 µM recombinant Pit2 (GST tag removed) [3]: 85 % inhibition
